For 9 compounds, Activity and Km results are on record in ChEMBL document CHEMBL2074016, “Comparative studies on in vitro methods for evaluating in vivo function of MDR1 P-glycoprotein” (Pharm Res, 2001).

Data set [1] has as its target T1, ATP-dependent translocase ABCB1 (Homo sapiens, UniProt P08183). The data set is described as follows: (§1) TP_TRANSPORTER: ATP hydrolysis in membrane fraction from High Five (BTI-TN5B1-4) cells. The note with it: bti-tn-5b1-4. It is filed as functional, cell membranes, BTI-TN-5B1-4.
Data set [2] has as its target T1, ATP-dependent translocase ABCB1. The data set is described as follows: TP_TRANSPORTER: transepithelial transport (apical to basal) of Daunorubicin (Daunomycin) at a concentration of 200 nM in MDR1-expressing LLC-PK1 cells. It is filed as functional, cell-based. The conditions noted are these: pig, llc-pk1, 0.2 µM.
In data set [3] the target is P-glycoprotein 1 and 3 (MDR1a/MDR1b) (Mus musculus, UniProt P21447+P06795). Put plainly: TP_TRANSPORTER: increase in brain concentration in mdr1a/1b(-/-) mouse. The note with it: in vivo. Type of data set: functional, organism-based.
Data set [4] concerns the target T1, ATP-dependent translocase ABCB1. Put plainly: TP_TRANSPORTER: transepithelial transport (apical to basal) of Dexamethasone at a concentration of 24.7 nM in MDR1-expressing LLC-PK1 cells. It is filed as functional, cell-based. The note with it: pig, llc-pk1, 0.0247 µM.
For data set [5] the target is unchanged. Put plainly: TP_TRANSPORTER: transepithelial transport (apical to basal) of Digoxin at a concentration of 52.6 nM in MDR1-expressing LLC-PK1 cells. It is filed as functional, cell-based. The conditions noted are these: pig, llc-pk1, 0.0526 µM.
For data set [6], the target named is ATP-dependent translocase ABCB1 (P-glycoprotein) (Homo sapiens, UniProt P08183). The description is as §1. Type of data set: functional, cell membranes, BTI-TN-5B1-4. The note with it: membrane fraction from High Five (BTI-TN5B1-4) cells.
Sequence of ATP-dependent translocase ABCB1 (P-glycoprotein) (P08183 whole entry): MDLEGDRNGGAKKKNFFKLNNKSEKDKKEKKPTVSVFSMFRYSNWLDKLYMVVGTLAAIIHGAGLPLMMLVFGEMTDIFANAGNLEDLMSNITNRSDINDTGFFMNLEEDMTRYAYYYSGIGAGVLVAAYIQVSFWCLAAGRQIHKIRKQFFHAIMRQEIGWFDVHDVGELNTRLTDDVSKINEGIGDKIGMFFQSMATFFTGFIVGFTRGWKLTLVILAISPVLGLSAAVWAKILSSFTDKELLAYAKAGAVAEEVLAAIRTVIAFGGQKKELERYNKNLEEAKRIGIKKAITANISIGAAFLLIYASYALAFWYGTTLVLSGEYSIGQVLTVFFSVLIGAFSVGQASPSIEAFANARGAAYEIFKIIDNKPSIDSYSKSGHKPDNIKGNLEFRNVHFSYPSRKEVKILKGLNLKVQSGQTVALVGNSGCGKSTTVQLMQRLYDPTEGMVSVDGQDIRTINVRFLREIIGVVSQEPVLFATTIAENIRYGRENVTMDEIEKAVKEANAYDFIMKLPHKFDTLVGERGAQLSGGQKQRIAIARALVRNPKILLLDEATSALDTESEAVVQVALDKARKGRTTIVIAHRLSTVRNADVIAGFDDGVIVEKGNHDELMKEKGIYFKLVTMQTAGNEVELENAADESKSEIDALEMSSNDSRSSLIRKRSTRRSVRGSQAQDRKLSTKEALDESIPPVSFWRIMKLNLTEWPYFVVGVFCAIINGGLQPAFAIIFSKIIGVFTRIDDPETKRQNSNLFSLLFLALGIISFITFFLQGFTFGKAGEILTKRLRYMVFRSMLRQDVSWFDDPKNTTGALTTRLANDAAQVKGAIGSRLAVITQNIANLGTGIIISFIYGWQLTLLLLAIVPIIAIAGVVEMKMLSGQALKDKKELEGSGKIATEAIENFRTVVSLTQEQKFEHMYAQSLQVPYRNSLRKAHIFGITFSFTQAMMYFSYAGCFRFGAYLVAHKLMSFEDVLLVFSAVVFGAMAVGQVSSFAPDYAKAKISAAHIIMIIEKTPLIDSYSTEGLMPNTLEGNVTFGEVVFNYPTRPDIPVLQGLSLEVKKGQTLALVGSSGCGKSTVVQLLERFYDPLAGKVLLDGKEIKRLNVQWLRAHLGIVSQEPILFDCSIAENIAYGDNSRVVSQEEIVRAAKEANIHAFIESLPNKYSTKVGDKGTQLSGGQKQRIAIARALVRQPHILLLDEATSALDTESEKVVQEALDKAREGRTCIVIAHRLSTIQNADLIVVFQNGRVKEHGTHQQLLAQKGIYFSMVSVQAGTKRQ
Data set [7] deals with T1, ATP-dependent translocase ABCB1. Put plainly: TP_TRANSPORTER: transepithelial transport (apical to basal) of Loperamide at a concentration of 1 uM in MDR1-expressing LLC-PK1 cells. Type of data set: functional, cell-based. The conditions noted are these: pig, llc-pk1, 1 µM.
For data set [8] the target is unchanged. The data set is described as follows: TP_TRANSPORTER: transepithelial transport (apical to basal) of Progesterone at 7 nM in MDR1-expressing LLC-PK1 cells. Type of data set: functional, cell-based. The conditions noted are these: pig, llc-pk1, 0.007 µM.
For data set [9] the target is unchanged. The data set is described as follows: TP_TRANSPORTER: transepithelial transport (apical to basal) of Vinblastine at a concentration of 22.5 nM in MDR1-expressing LLC-PK1 cells. It is filed as functional, cell-based. The conditions noted are these: pig.
The subject of data set [10] is CN1C(=O)CN=C(c2ccccc2)c2cc(Cl)ccc21. Described as §1. It is filed as functional, cell membranes, BTI-TN-5B1-4.

The Km is the concentration of substrate that gives half-maximal velocity.

T1 sequence (P08183 whole entry): as above

`CN/C(=N/CCSCc1nc[nH]c1C)NC#N` [CIMETIDINE]: the Activity result in [1] is “is not a substrate [-]”.
For `COc1cccc2c1C(=O)c1c(O)c3c(c(O)c1C2=O)C[C@@](O)(C(C)=O)C[C@@H]3O[C@H]1C[C@H](N)[C@H](O)[C@H](C)O1` [DAUNORUBICIN], the Activity result in data set [2] and in [3] was “substrate [+]” each time.
Turning to `C[C@@H]1C[C@H]2[C@@H]3CCC4=CC(=O)C=C[C@]4(C)[C@@]3(F)[C@@H](O)C[C@]2(C)[C@@]1(O)C(=O)CO` [DEXAMETHASONE], the Activity entry is “is not a substrate [-]” in [1] and “substrate [+]” in data set [4].
In the case of `C[C@H]1O[C@@H](O[C@H]2[C@@H](O)C[C@H](O[C@H]3[C@@H](O)C[C@H](O[C@H]4CC[C@@]5(C)[C@H](CC[C@@H]6[C@@H]5C[C@@H](O)[C@]5(C)[C@@H](C7=CC(=O)OC7)CC[C@]65O)C4)O[C@@H]3C)O[C@@H]2C)C[C@H](O)[C@@H]1O` [DIGOXIN], the Activity entry in data set [5] is “substrate [+]”.
As for `C[C@]12CC[C@@H]3c4ccc(O)cc4CC[C@H]3[C@@H]1CC[C@@H]2O[C@@H]1O[C@H](C(=O)O)[C@@H](O)[C@H](O)[C@H]1O` [ESTRADIOL 17B GLUCURONIDE], in data set [1], the Activity entry is “substrate [+]”.
As to `CN(C)C(=O)C(CCN1CCC(O)(c2ccc(Cl)cc2)CC1)(c1ccccc1)c1ccccc1` [LOPERAMIDE], the Michaelis constant (Km) in [6] was 13.8 µM. In data set [7], the Activity entry was “substrate [+]”.
Turning to `CC(=O)[C@H]1CC[C@H]2[C@@H]3CCC4=CC(=O)CC[C@]4(C)[C@H]3CC[C@]12C` [PROGESTERONE], the Activity result in data set [8] is “is not a substrate [-]”.
For `CC[C@]1(O)C[C@@H]2CN(CCc3c([nH]c4ccccc34)[C@@](C(=O)OC)(c3cc4c(cc3OC)N(C)[C@H]3[C@@](O)(C(=O)OC)[C@H](OC(C)=O)[C@]5(CC)C=CCN6CC[C@]43[C@@H]65)C2)C1` [VINBLASTINE], the Activity result in data set [9] was “substrate [+]”.
Turning to “ATP-dependent translocase ABCB1 (Homo sapiens)”, in data set [10], the Km is 72.4 µM.
